Patent publication US20050176655A1, “Novel macrolide derivatives havaing effect of potentiating antifungal activity” (priority 2002, published 2005)

How the values were obtained:
Assay in all cases: Paper disk method, enhancing action for activities of azole antifungal agents
Format in all cases: cell-based
[1] = tested on: Candida albicans ATCC 64548; settings: GYM, miconazole 0.03 μg/ml, 24 hours
Experimental: (§1) Test organisms used were Candida albicans ATCC 64548, fluconazole resistant Candida albicans ATCC 64550 and Aspergillus niger ATCC 6275. Candida spp. were cultured in Waksman broth (glucose 2.0%, peptone 0.5%, dry yeast 0.3%, meat extract 0.5%, NaCl 0.5% and CaCO3 0.3%, pH 7.0) at 27° C. for 40 hours, then 0.1% thereof was inoculated on GY agar medium (glucose 1.0%, yeast extract 0.5% and agar 0.8%, pH 6.0). Spore suspension 0.2% of Aspergillus niger ATCC 6275 was inoculated on GY agar medium.
(§2) Azole antifungal agents used were miconazole (Sigma Inc., the U.S.) and fluconazole (ICN Pharmaceuticals, Inc., the U.S.), and were added at concentrations without affecting growth on each test organisms follows.
Candida albicans ATCC 64548: miconazole 0.03 μg/ml or fluconazole 0.5 μg/ml.
(§3) In the above medium, a medium added with miconazole to GY medium (control) is designated as GYM, and a medium added with fluconazole is designated as GYF. Activities were assessed by means of paper disk method (thickness: 8 mm, ADVANTEC MFS INC., Japan). Diameter of inhibition ring is expressed with mm unit after culturing Candida spp. for 24 hours and Aspergillus niger ATCC 6275 for 48 hours. Transparency of the inhibition ring is assessed with 5 degrees of A, B, C, D and E (transparence<A<B<C<D<E<opaque).

[2] = tested on: Aspergillus niger ATCC 6275; settings: 48 hours; for Inhibition activity (inhibition ring mm) A. niger ATCC 6275 GYF / Transparency of the inhibition ring A. niger ATCC 6275 GYF: fluconazole 10 μg/ml; for Inhibition activity (inhibition ring mm) A. niger ATCC 6275 GY / Transparency of the inhibition ring A. niger ATCC 6275 GY: GY medium (control, no azole); for Inhibition activity (inhibition ring mm) A. niger ATCC 6275 GYM / Transparency of the inhibition ring A. niger ATCC 6275 GYM: miconazole 0.1 μg/ml
Experimental: as §1, §2
Aspergillus niger ATCC 6275: miconazole 0.1 μg/ml or fluconazole 10 μg/ml.
as §3

[3] = tested on: fluconazole resistant Candida albicans ATCC 64550; settings: 24 hours; for Inhibition activity (inhibition ring mm) C. albicans ATCC 64550 GYF / Transparency of the inhibition ring C. albicans ATCC 64550 GYF: fluconazole 30 μg/ml; for Inhibition activity (inhibition ring mm) C. albicans ATCC 64550 GYM / Transparency of the inhibition ring C. albicans ATCC 64550 GYM: miconazole 0.15 μg/ml
Experimental: as §1, §2
Candida albicans ATCC 64550: miconazole 0.15 μg/ml or fluconazole 30 μg/ml.
as §3

Row | SMILES | Inhibition activity (inhibition ring mm) A. niger ATCC 6275 GYF ([2]; 10 μg/8 mm disk) | Transparency of the inhibition ring A. niger ATCC 6275 GYF ([2]; 10 μg/8 mm disk) | Inhibition activity (inhibition ring mm) A. niger ATCC 6275 GY ([2]; 50 μg/8 mm disk) | Transparency of the inhibition ring A. niger ATCC 6275 GY ([2]; 50 μg/8 mm disk) | Inhibition activity (inhibition ring mm) A. niger ATCC 6275 GYF ([2]; 50 μg/8 mm disk) | Transparency of the inhibition ring A. niger ATCC 6275 GYF ([2]; 50 μg/8 mm disk) | Inhibition activity (inhibition ring mm) C. albicans ATCC 64550 GYF ([3]; 50 μg/8 mm disk) | Transparency of the inhibition ring C. albicans ATCC 64550 GYF ([3]; 50 μg/8 mm disk) | Inhibition activity (inhibition ring mm) C. albicans ATCC 64550 GYM ([3]; 50 μg/8 mm disk) | Transparency of the inhibition ring C. albicans ATCC 64550 GYM ([3]; 50 μg/8 mm disk) | Inhibition activity (inhibition ring mm) A. niger ATCC 6275 GYM ([2]; 10 μg/8 mm disk) | Transparency of the inhibition ring A. niger ATCC 6275 GYM ([2]; 10 μg/8 mm disk) | Inhibition activity (inhibition ring mm) A. niger ATCC 6275 GYM ([2]; 50 μg/8 mm disk) | Transparency of the inhibition ring A. niger ATCC 6275 GYM ([2]; 50 μg/8 mm disk) | also measured
1 | C=CCCON=C1C(C)CC(C)(O)C(OC2OC(C)CC(N(C)C)C2O)C(C)C(OC2CC(C)(OC)C(O)C(C)O2)C(C)C(=O)OC(CC)C(C)(O)C(O)C1C (stereo not shown) [Compound 769, 9(E)-3-butenyloxime-erythromycin A] | 11 mm | E (Growth of test organism was inhibited 35% or less.) | 10 mm | E (Growth of test organism was inhibited 35% or less.) | 16 mm | E (Growth of test organism was inhibited 35% or less.) |  |  |  |  |  |  |  |  | Inhibition activity (inhibition ring mm) C. albicans ATCC 64548 GYM ([1]; 100 μg/8 mm disk): 14 mm; Transparency of the inhibition ring C. albicans ATCC 64548 GYM ([1]; 100 μg/8 mm disk): E (Growth of test organism was inhibited 35% or less.)
2 | CCC1OC1(C)C1OC(=O)C(C)C(OC2CC(C)(OC)C(OS(=O)(=O)c3ccccc3)C(C)O2)C(C)C(OC2OC(C)CC(N(C)C)C2OC(C)=O)C2(C)CC(C)=C(O2)C1C (stereo not shown) [Compound 774, 2′-O-acetyl-4″-O-benzenesulfonyl-12,13-epoxy-8,9-Anhydro-pseudoerythromycin A 6,9-hemiketal] | 14 mm | E (Growth of test organism was inhibited 35% or less.) |  |  | 17 mm | E (Growth of test organism was inhibited 35% or less.) | 17 mm | A (Growth of test organism was inhibited 95% or more.) | 17 mm | A (Growth of test organism was inhibited 95% or more.) | 13 mm | E (Growth of test organism was inhibited 35% or less.) | 18 mm | D (Growth of test organism was inhibited 35% or more and 55% or less.) | Inhibition activity (inhibition ring mm) C. albicans ATCC 64550 GYF ([3]; 10 μg/8 mm disk): 13 mm; Transparency of the inhibition ring C. albicans ATCC 64550 GYF ([3]; 10 μg/8 mm disk): A (Growth of test organism was inhibited 95% or more.); Inhibition activity (inhibition ring mm) C. albicans ATCC 64550 GYM ([3]; 10 μg/8 mm disk): 14 mm; Transparency of the inhibition ring C. albicans ATCC 64550 GYM ([3]; 10 μg/8 mm disk): A (Growth of test organism was inhibited 95% or more.)
3 | CCC1OC1(C)C1OC(=O)C(C)C(OC2CC(C)(OC)C(OS(=O)(=O)Cc3ccccc3)C(C)O2)C(C)C(OC2OC(C)CC(N(C)C)C2OC(C)=O)C2(C)CC(C)=C(O2)C1C (stereo not shown) [Compound 775, 2′-O-acetyl-4″-O-benzylsulfonyl-12,13-epoxide-8,9-anhydro-pseudoerythromycin A. 6,9-hemiketal] | 16 mm | E (Growth of test organism was inhibited 35% or less.) |  |  | 16 mm | E (Growth of test organism was inhibited 35% or less.) |  |  |  |  |  |  | 16 mm | D (Growth of test organism was inhibited 35% or more and 55% or less.) | Inhibition activity (inhibition ring mm) C. albicans ATCC 64548 GYM ([1]; 50 μg/8 mm disk): 10 mm; Transparency of the inhibition ring C. albicans ATCC 64548 GYM ([1]; 50 μg/8 mm disk): E (Growth of test organism was inhibited 35% or less.)
4 | CCC1OC1(C)C1OC(=O)C(C)C(OC2CC(C)(OC)C(OS(=O)(=O)Cc3ccccc3)C(C)O2)C(C)C(OC2OC(C)CC(N(C)C)C2O)C2(C)CC(C)=C(O2)C1C (stereo not shown) [Compound 780, 4″-O-benzylsulfonyl-12,13-epoxy-8,9-anhydro-pseudoerythromycin A. 6,9-hemiketal] | 11 mm | E (Growth of test organism was inhibited 35% or less.) | 12 mm | E (Growth of test organism was inhibited 35% or less.) | 12 mm | E (Growth of test organism was inhibited 35% or less.) | 14 mm | C (Growth of test organism was inhibited 55% or more and 75% or less.) | 12 mm | C (Growth of test organism was inhibited 55% or more and 75% or less.) | 14 mm | E (Growth of test organism was inhibited 35% or less.) | 14 mm | E (Growth of test organism was inhibited 35% or less.) | 
